ChEMBL document CHEMBL1201862, “PubChem BioAssay data set” (2004)
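1) Cells in 96-well plates. 2) Compound, 48 h, 5 concentrations. 3) Linear interpolation between surrounding doses. 4) Unreached endpoint = highest concentration. At the GI50, growth is halved.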 The source made the active and inactive calls. Rule as the data show it: active = GI50 up to about 1.1 µM and inactive = higher.

Key:
Assay in all cases: growth of human tumour cells (NCI), 48 h
SN12C = system: SN12C
COLO 205 = system: COLO 205
DMS-114 = system: DMS-114
NCI-H23 = system: NCI-H23
A549 = system: A549
SNB-78 = system: SNB-78
UO-31 = system: UO-31
KM-20L2 = system: KM-20L2
HCT-15 = system: HCT-15
CAKI-1 = system: CAKI-1
SK-MEL-5 = system: SK-MEL-5
A498 = system: A498
786-0 = system: 786-0
ACHN = system: ACHN
UACC-62 = system: UACC-62
SK-OV-3 = system: SK-OV-3
XF498 = system: XF498
OVCAR-5 = system: OVCAR-5
SW-620 = system: SW-620
NCI-H522 = system: NCI-H522
EKVX = system: EKVX
UACC-257 = system: UACC-257
TK-10 = system: TK-10
NCI-H226 = system: NCI-H226
HOP-62 = system: HOP-62
SK-MEL-28 = system: SK-MEL-28
HL-60 = system: HL-60
HOP-92 = system: HOP-92
KM12 = system: KM12
SF-295 = system: SF-295
OVCAR-8 = system: OVCAR-8
MOLT-4 = system: MOLT-4
OVCAR-3 = system: OVCAR-3
SF-268 = system: SF-268
SNB-75 = system: SNB-75
IGROV-1 = system: IGROV-1
RXF 393 = system: RXF 393
Malme-3M = system: Malme-3M
M19-MEL = system: M19-MEL
NCI-H460 = system: NCI-H460
SNB-19 = system: SNB-19
RPMI-8226 = system: RPMI-8226
RXF 631 = system: RXF 631
CCRF-CEM = system: CCRF-CEM
U-251 = system: U-251
DLD-1 = system: DLD-1
M14 = system: M14
SK-MEL-2 = system: SK-MEL-2
HCT-116 = system: HCT-116
HCC 2998 = system: HCC 2998
HT-29 = system: HT-29
K562 = system: K562
SF-539 = system: SF-539
DMS-273 = system: DMS-273
LOX IMVI = system: LOX IMVI
HOP-18 = system: HOP-18
LXFL 529 = system: LXFL 529
OVCAR-4 = system: OVCAR-4
SR = system: SR

Measured: GI50

Cc1ccccc1C(C#N)C(=O)C(=O)Nc1cccc(Cl)c1 (configuration not stated)
> 100 µM: HCT-15
inactive: SN12C > 100 µM | COLO 205 58.3 µM | DMS-114 54.6 µM | NCI-H23 > 100 µM | A549 > 100 µM | SNB-78 > 100 µM | UO-31 > 100 µM | KM-20L2 > 100 µM | CAKI-1 > 100 µM | SK-MEL-5 > 100 µM | A498 > 100 µM | 786-0 37.8 µM | ACHN > 100 µM | UACC-62 > 100 µM | SK-OV-3 > 100 µM | XF498 71.4 µM | OVCAR-5 > 100 µM | SW-620 15.7 µM | NCI-H522 58.5 µM | EKVX > 100 µM | UACC-257 > 100 µM | TK-10 > 100 µM | NCI-H226 > 100 µM | HOP-62 > 100 µM | SK-MEL-28 > 100 µM | HL-60 91.4 µM | HOP-92 > 100 µM | KM12 > 100 µM | SF-295 > 100 µM | OVCAR-8 > 100 µM | MOLT-4 > 100 µM | OVCAR-3 > 100 µM | SF-268 > 100 µM | SNB-75 > 100 µM | IGROV-1 > 100 µM | RXF 393 > 100 µM | Malme-3M > 100 µM | M19-MEL 26.4 µM | NCI-H460 61.5 µM | SNB-19 > 100 µM | RPMI-8226 27.2 µM | RXF 631 > 100 µM | CCRF-CEM 39.4 µM | U-251 > 100 µM | DLD-1 > 100 µM | M14 > 100 µM | SK-MEL-2 > 100 µM | HCT-116 > 100 µM | HCC 2998 > 100 µM | HT-29 > 100 µM | K562 32.2 µM | SF-539 > 100 µM | DMS-273 > 100 µM | LOX IMVI 19.1 µM

O=C(N/C(=C\c1cccc([N+](=O)[O-])c1)c1nc2c(O)nc(S)nc2[nH]1)c1ccccc1
inactive: SN12C > 100 µM | COLO 205 > 100 µM | DMS-114 88.9 µM | NCI-H23 > 100 µM | A549 > 100 µM | SNB-78 > 100 µM | UO-31 24.5 µM | KM-20L2 > 100 µM | CAKI-1 > 100 µM | HOP-18 > 100 µM | SK-MEL-5 > 100 µM | A498 > 100 µM | 786-0 > 100 µM | ACHN > 100 µM | UACC-62 > 100 µM | LXFL 529 58.5 µM | SK-OV-3 > 100 µM | XF498 > 100 µM | OVCAR-5 > 100 µM | SW-620 > 100 µM | NCI-H522 66.8 µM | EKVX > 100 µM | UACC-257 > 100 µM | NCI-H226 > 100 µM | HOP-62 > 100 µM | SK-MEL-28 > 100 µM | HL-60 69.3 µM | HOP-92 > 100 µM | KM12 > 100 µM | SF-295 > 100 µM | OVCAR-8 > 100 µM | MOLT-4 94.4 µM | OVCAR-3 > 100 µM | SF-268 48.2 µM | SNB-75 > 100 µM | IGROV-1 > 100 µM | RXF 393 45.5 µM | Malme-3M > 100 µM | M19-MEL > 100 µM | OVCAR-4 > 100 µM | NCI-H460 > 100 µM | SNB-19 > 100 µM | RPMI-8226 97.1 µM | RXF 631 > 100 µM | CCRF-CEM > 100 µM | U-251 > 100 µM | DLD-1 > 100 µM | M14 > 100 µM | SK-MEL-2 > 100 µM | HCT-116 > 100 µM | SR > 100 µM | HCC 2998 > 100 µM | HT-29 > 100 µM | K562 > 100 µM | SF-539 > 100 µM | LOX IMVI > 100 µM
> 100 µM: HCT-15
